# Laboratory results as given in ChEMBL document CHEMBL4507288 (2021).
# Calls of active or inactive are those of the source. The rule behind the calls is not given here.
# Key:
# [1] = target: 5-hydroxytryptamine receptor 1A (Homo sapiens) (UniProt P08908); settings: Compound concentration 10.0 uM
# [2] = target: Mu-type opioid receptor (Homo sapiens) (UniProt P35372); settings: Compound concentration 10.0 uM
# [3] = target: Alpha-1A adrenergic receptor (Homo sapiens) (UniProt P35348); settings: Compound concentration 10.0 uM
# [4] = target: Alpha-2A adrenergic receptor (Homo sapiens) (UniProt P08913); settings: Compound concentration 10.0 uM
# [5] = target: Sodium-dependent noradrenaline transporter (Homo sapiens, UniProt P23975); settings: Compound concentration 10.0 uM
# [6] = target: D(1A) dopamine receptor (Homo sapiens) (UniProt P21728); settings: Compound concentration 10.0 uM
# [7] = target: 5-hydroxytryptamine receptor 2B (Homo sapiens, UniProt P41595); settings: Compound concentration 10.0 uM
# D(3) dopamine receptor = D(3) dopamine receptor (Homo sapiens, UniProt P35462); settings: Compound concentration 10.0 uM
# [8] = target: Histamine H1 receptor (Homo sapiens) (UniProt P35367); settings: Compound concentration 10.0 uM
# [9] = target: Muscarinic acetylcholine receptor M5 (Homo sapiens) (UniProt P08912); settings: Compound concentration 10.0 uM
# [10] = target: Sodium-dependent dopamine transporter (Homo sapiens, UniProt Q01959); settings: Compound concentration 10.0 uM
# [11] = target: 5-hydroxytryptamine receptor 6 (Homo sapiens) (UniProt P50406); settings: Compound concentration 10.0 uM
# [12] = target: Alpha-1B adrenergic receptor (Homo sapiens) (UniProt P35368); settings: Compound concentration 10.0 uM
# [13] = target: Muscarinic acetylcholine receptor M1 (Homo sapiens) (UniProt P11229); settings: Compound concentration 10.0 uM
# [14] = target: 5-hydroxytryptamine receptor 2A (Homo sapiens, UniProt P28223); settings: Compound concentration 10.0 uM
# [15] = target: Sigma intracellular receptor 2 (Homo sapiens, UniProt Q5BJF2); settings: Compound concentration 10.0 uM
# [16] = target: Muscarinic acetylcholine receptor M4 (Homo sapiens) (UniProt P08173); settings: Compound concentration 10.0 uM
# [17] = target: Muscarinic acetylcholine receptor M2 (Homo sapiens) (UniProt P08172); settings: Compound concentration 10.0 uM
# [18] = target: Delta-type opioid receptor (Homo sapiens) (UniProt P41143); settings: Compound concentration 10.0 uM
# D(2) dopamine receptor = D(2) dopamine receptor (Homo sapiens, UniProt P14416); settings: Compound concentration 10.0 uM
# [19] = target: 5-hydroxytryptamine receptor 1D (Homo sapiens, UniProt P28221); settings: Compound concentration 10.0 uM
# [20] = target: GABA-A receptor; anion channel (Rattus norvegicus) (UniProt O09028+P15431+P18506+P18508+P19969+P20236+P23574+P23576+P28471+P28473+P30191+P62813+P63079+P63138+Q91ZM7+Q9ES14); settings: Compound concentration 10.0 uM
# [21] = target: 5-hydroxytryptamine receptor 1B (Homo sapiens, UniProt P28222); settings: Compound concentration 10.0 uM
# [22] = target: Beta-3 adrenergic receptor (Homo sapiens) (UniProt P13945); settings: Compound concentration 10.0 uM
# [23] = target: Alpha-2B adrenergic receptor (Homo sapiens) (UniProt P18089); settings: Compound concentration 10.0 uM
# [24] = target: T1, Amyloid-beta precursor protein (Homo sapiens, UniProt P05067); assay: Aβ40 inhibition assay
# [25] = target: 5-hydroxytryptamine receptor 7 (Homo sapiens, UniProt P34969); settings: Compound concentration 10.0 uM
# [26] = target: Sigma non-opioid intracellular receptor 1 (Homo sapiens, UniProt Q99720); settings: Compound concentration 10.0 uM
# [27] = target: 5-hydroxytryptamine receptor 5A (Homo sapiens) (UniProt P47898); settings: Compound concentration 10.0 uM
# [28] = target: D(4) dopamine receptor (Homo sapiens) (UniProt P21917); settings: Compound concentration 10.0 uM
# [29] = target: Histamine H3 receptor (Homo sapiens) (UniProt Q9Y5N1); settings: Compound concentration 10.0 uM
# [30] = target: D(1B) dopamine receptor (Homo sapiens) (UniProt P21918); settings: Compound concentration 10.0 uM
# [31] = target: Alpha-1D adrenergic receptor (Homo sapiens) (UniProt P25100); settings: Compound concentration 10.0 uM
# [32] = target: Sodium-dependent serotonin transporter (Homo sapiens) (UniProt P31645); settings: Compound concentration 10.0 uM
# [33] = target: 5-hydroxytryptamine receptor 3A (Homo sapiens) (UniProt P46098); settings: Compound concentration 10.0 uM
# [34] = target: 5-hydroxytryptamine receptor 2C (Homo sapiens) (UniProt P28335); settings: Compound concentration 10.0 uM
# [35] = target: Kappa-type opioid receptor (Homo sapiens, UniProt P41145); settings: Compound concentration 10.0 uM
# [36] = target: Alpha-2C adrenergic receptor (Homo sapiens) (UniProt P18825); settings: Compound concentration 10.0 uM
# [37] = target: T1, Amyloid-beta precursor protein; assay: Radioligand Binding Assay
# [38] = target: MAP kinase-interacting serine/threonine-protein kinase 2 (Homo sapiens) (UniProt Q9HBH9); settings: Compound concentration 1000.0 nM
# [39] = target: cAMP-dependent protein kinase catalytic subunit PRKX (Homo sapiens) (UniProt P51817); settings: Compound concentration 1000.0 nM
# [40] = target: Mitogen-activated protein kinase 3 (Homo sapiens) (UniProt P27361); settings: Compound concentration 1000.0 nM
# [41] = target: Cyclin-dependent kinase 19 (Homo sapiens) (UniProt Q9BWU1); settings: Compound concentration 1000.0 nM
# [42] = target: Mitogen-activated protein kinase kinase kinase 14 (Homo sapiens) (UniProt Q99558); settings: Compound concentration 1000.0 nM
# [43] = target: Platelet-derived growth factor receptor beta (Homo sapiens) (UniProt P09619); settings: Compound concentration 1000.0 nM
# [44] = target: Mitotic checkpoint serine/threonine-protein kinase BUB1 (Homo sapiens) (UniProt O43683); settings: Compound concentration 1000.0 nM
# Sequence of Kappa-type opioid receptor (P41145 whole entry): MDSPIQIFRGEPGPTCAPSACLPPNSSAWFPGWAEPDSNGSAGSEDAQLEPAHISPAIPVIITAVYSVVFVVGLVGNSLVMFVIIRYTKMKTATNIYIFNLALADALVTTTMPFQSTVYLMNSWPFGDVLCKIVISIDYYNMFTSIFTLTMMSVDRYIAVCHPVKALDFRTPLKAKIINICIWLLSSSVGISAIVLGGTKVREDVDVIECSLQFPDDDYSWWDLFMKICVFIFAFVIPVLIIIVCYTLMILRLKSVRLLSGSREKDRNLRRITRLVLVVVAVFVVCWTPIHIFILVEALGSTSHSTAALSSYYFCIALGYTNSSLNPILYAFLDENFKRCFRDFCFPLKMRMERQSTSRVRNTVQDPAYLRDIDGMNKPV
# T1 sequence (P05067 whole entry): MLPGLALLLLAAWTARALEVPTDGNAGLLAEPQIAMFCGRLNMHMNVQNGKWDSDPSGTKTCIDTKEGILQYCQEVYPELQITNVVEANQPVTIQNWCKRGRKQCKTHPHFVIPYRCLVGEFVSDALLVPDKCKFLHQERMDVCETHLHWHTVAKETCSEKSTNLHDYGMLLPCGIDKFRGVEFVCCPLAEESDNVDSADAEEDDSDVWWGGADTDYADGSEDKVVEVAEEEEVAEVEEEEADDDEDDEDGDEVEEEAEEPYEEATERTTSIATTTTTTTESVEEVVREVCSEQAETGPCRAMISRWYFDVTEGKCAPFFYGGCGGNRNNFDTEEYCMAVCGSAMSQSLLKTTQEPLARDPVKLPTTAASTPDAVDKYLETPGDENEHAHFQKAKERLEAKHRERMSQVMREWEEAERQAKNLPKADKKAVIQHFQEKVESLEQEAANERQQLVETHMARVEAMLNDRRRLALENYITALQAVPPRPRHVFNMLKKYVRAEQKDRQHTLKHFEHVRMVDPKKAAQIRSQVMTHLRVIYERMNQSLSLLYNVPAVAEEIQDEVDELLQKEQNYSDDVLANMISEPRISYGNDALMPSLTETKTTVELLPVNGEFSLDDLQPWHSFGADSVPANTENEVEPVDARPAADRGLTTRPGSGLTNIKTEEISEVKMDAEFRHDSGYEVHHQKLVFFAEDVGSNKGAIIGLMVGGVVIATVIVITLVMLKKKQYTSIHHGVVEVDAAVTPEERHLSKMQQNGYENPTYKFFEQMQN
# Sequence of 5-hydroxytryptamine receptor 1D (P28221 whole entry): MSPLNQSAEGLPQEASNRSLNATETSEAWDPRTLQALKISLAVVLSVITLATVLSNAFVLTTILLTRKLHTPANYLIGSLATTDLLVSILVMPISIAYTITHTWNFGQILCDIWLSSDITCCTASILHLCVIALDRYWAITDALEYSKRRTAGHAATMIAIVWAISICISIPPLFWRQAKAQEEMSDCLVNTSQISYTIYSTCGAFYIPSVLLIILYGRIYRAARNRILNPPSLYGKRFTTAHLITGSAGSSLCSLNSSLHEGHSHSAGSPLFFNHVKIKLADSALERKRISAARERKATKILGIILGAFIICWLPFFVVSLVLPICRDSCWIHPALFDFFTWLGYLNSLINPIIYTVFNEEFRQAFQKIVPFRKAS
# Sequence of 5-hydroxytryptamine receptor 6 (Homo sapiens) (P50406 whole entry): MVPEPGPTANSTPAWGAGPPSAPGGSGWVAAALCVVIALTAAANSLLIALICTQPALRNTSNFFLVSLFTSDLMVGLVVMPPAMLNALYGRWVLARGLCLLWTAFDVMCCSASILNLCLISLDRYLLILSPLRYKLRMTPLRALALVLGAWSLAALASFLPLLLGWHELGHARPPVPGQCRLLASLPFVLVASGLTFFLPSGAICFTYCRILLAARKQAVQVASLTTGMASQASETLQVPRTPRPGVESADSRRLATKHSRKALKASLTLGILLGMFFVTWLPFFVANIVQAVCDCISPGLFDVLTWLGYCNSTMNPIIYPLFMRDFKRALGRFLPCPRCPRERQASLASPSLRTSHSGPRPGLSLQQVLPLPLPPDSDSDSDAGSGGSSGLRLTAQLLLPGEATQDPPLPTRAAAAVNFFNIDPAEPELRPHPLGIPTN
# Sequence of Beta-3 adrenergic receptor (Homo sapiens) (P13945 whole entry, looked up): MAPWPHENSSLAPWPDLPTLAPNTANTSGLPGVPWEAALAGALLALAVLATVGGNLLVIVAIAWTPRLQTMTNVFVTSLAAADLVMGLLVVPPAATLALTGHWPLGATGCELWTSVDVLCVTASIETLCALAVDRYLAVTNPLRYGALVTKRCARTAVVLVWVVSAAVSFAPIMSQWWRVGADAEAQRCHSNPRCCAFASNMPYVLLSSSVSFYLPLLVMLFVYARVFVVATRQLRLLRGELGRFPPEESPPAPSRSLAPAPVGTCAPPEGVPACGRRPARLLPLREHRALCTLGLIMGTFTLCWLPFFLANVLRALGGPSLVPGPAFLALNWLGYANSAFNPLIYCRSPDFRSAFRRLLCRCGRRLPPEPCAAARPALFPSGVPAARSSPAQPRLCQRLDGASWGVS
# Sequence of Alpha-1A adrenergic receptor (Homo sapiens) (P35348 whole entry): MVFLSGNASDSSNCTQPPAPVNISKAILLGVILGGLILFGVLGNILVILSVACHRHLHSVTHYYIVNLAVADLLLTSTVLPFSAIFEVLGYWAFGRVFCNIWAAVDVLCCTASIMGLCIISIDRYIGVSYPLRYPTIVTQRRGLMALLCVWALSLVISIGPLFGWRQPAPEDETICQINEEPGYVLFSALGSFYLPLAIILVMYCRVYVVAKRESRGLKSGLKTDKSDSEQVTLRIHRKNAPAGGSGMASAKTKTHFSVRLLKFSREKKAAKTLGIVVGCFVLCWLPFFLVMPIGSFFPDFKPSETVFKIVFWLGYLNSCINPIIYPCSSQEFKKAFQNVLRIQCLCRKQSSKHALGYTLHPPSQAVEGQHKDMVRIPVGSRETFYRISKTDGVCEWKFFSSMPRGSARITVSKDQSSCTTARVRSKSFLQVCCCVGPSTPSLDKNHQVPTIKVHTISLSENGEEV
# Sequence of 5-hydroxytryptamine receptor 2B (P41595 whole entry): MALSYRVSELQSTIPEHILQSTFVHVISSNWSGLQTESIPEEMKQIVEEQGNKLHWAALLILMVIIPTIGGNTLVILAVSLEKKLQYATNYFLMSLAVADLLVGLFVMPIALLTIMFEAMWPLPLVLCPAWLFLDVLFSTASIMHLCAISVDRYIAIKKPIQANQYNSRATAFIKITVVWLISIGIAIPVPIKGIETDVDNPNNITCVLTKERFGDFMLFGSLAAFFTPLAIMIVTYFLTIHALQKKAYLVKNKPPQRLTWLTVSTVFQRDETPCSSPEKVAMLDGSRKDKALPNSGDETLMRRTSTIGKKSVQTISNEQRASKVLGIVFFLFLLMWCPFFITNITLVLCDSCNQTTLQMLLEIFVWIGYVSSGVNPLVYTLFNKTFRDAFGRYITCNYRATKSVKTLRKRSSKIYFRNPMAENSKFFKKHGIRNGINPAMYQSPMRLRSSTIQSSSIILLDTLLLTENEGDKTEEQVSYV
# Sequence of D(4) dopamine receptor (Homo sapiens) (P21917 whole entry): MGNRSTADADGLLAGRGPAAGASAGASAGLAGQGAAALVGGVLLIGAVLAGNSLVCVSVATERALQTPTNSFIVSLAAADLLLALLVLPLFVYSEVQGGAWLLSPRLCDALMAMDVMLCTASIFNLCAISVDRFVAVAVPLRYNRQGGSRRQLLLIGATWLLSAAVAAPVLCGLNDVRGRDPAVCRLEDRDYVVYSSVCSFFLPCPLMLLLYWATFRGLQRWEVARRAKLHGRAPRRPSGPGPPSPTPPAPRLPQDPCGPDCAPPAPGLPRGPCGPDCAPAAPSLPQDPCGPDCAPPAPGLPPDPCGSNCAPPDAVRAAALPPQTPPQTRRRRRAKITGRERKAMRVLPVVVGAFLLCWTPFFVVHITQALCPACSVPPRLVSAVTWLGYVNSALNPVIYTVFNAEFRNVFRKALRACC
# Sequence of Alpha-2A adrenergic receptor (Homo sapiens) (P08913 whole entry): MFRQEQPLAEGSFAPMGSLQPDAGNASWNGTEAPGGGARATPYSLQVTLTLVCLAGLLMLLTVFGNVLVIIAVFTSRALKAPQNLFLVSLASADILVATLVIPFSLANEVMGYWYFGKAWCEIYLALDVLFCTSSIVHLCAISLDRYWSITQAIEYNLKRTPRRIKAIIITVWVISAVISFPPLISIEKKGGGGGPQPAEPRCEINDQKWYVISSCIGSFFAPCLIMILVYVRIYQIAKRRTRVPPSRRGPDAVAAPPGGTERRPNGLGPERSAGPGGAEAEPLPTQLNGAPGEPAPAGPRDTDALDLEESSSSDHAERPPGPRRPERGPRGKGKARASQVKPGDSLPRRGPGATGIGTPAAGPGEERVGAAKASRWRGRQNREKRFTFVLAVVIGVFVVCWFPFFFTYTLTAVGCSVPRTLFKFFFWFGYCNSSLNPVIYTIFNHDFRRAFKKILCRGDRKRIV
# Sequence of 5-hydroxytryptamine receptor 7 (P34969 whole entry): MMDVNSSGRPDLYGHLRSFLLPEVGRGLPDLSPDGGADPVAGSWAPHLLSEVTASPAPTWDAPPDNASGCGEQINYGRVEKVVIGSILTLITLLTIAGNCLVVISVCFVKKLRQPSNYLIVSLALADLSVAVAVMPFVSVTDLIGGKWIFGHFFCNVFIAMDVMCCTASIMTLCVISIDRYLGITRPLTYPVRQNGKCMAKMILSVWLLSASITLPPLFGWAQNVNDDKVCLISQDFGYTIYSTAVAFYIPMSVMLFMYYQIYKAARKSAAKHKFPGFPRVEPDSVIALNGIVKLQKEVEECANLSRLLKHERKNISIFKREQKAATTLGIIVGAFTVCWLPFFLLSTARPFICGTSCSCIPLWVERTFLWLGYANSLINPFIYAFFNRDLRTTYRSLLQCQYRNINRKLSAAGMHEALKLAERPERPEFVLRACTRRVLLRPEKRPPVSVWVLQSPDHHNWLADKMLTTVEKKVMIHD
# Sequence of Sigma non-opioid intracellular receptor 1 (Q99720 whole entry): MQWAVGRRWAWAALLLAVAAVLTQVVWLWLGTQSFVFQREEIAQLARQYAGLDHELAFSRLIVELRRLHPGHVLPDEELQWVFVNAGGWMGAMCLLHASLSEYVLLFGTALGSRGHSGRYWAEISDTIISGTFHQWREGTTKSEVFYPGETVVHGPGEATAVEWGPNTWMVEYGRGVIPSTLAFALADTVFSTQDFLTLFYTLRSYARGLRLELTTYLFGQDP
structure (smiles),measurement,setting,value
CC(C)(C)OC(=O)N1CCCC1CNC1CCC(c2cc(F)ccc2F)(S(=O)(=O)c2ccc(Cl)cc2)CC1 (centres undefined) [GSI-NC],inhibition,[1],66.3%
same,inhibition,[2],49.1%
same,inhibition,[3],12.4%
same,inhibition,[4],82.3%
same,inhibition,[5],50.7%
same,inhibition,[6],13.8%
same,inhibition,[7],97.2%
same,inhibition,D(3) dopamine receptor,86.1%
same,inhibition,[8],25.6%
same,inhibition,[9],26.5%
same,inhibition,[10],95.9%
same,inhibition,[11],37.1%
same,inhibition,[12],41%
same,inhibition,[13],8.44%
same,inhibition,[14],92.2%
same,inhibition,[15],83.4%
same,inhibition,[16],25.6%
same,inhibition,[17],9.4%
same,inhibition,[18],21.4%
same,inhibition,D(2) dopamine receptor,83%
same,inhibition,[19],61.4%
same,inhibition,[20],14.6%
same,inhibition,[21],70.4%
same,inhibition,[22],25.6%
same,inhibition,[23],77.4%
same,IC50,[24],1600 nM (not active)
same,inhibition,[25],70.7%
same,inhibition,[26],91.6%
same,inhibition,[27],35%
same,inhibition,[28],20.4%
same,inhibition,[29],26.9%
same,inhibition,[30],13.1%
same,inhibition,[31],22.5%
same,inhibition,[32],6.71%
same,inhibition,[33],-5.6%
same,inhibition,[34],80.9%
same,inhibition,[35],69.8%
same,inhibition,[36],81.4%
O=S(=O)(NC1CCC(c2cc(F)ccc2F)(S(=O)(=O)c2ccc(Cl)cc2)CC1)C(F)(F)F (centres undefined) [MRK-560],inhibition,[1],18.3%
same,inhibition,[2],20%
same,inhibition,[3],9.88%
same,inhibition,[4],8.45%
same,IC50,[37],0.65 nM (active)
same,inhibition,[5],7.49%
same,inhibition,[6],17.4%
same,inhibition,[7],4.74%
same,inhibition,D(3) dopamine receptor,21.7%
same,inhibition,[8],20.3%
same,inhibition,[9],1.96%
same,inhibition,[10],75.1%
same,inhibition,[11],12.3%
same,residual activity,[38],57%
same,inhibition,[12],-5.22%
same,inhibition,[13],-5.38%
same,inhibition,[14],31.2%
same,inhibition,[15],25.2%
same,inhibition,[16],18.9%
same,inhibition,[17],-0.654%
same,residual activity,[39],100%
same,inhibition,[18],20%
same,residual activity,[40],100%
same,residual activity,[41],100%
same,inhibition,D(2) dopamine receptor,11.4%
same,inhibition,[19],13.9%
same,inhibition,[20],28.6%
same,inhibition,[21],15.4%
same,inhibition,[22],13.5%
same,inhibition,[23],-2.13%
same,IC50,[24],< 0.5 nM (active)
same,inhibition,[25],-5.02%
same,inhibition,[26],36.8%
same,inhibition,[27],-5.05%
same,residual activity,[42],82%
same,residual activity,[43],100%
same,inhibition,[28],20.1%
same,inhibition,[29],14.2%
same,inhibition,[30],11.3%
same,inhibition,[31],0.882%
same,inhibition,[32],-3.67%
same,inhibition,[33],-8.12%
same,inhibition,[34],12.3%
same,residual activity,[44],100%
same,inhibition,[35],24.6%
same,inhibition,[36],18.2%
